We go through nine compounds from patent US20240150366A1, “4-AMINOQUINAZOLINE COMPOUND” (Astellas Pharma Inc., priority 2021, published 2024).

Assay [1] deals with KRAS G12D mutant-positive pancreatic cancer line AsPC-1. Briefly: Non-anchorage-dependent cell growth inhibitory activity in AsPC-1 (spheroid 3D culture). Format: cell-based. The following applies: Homo sapiens, ASPC1, 144 h, read-out: IC50, non-anchorage-dependent cell growth inhibition. As for the experimental part:
The non-anchorage-dependent cell growth inhibitory activities of subject compounds were evaluated by spheroid 3D cell culture.
AsPC-1 cells were seeded at 36 μL/well on a low-cell-adhesive round bottom 384-well plate (Prime Surface: from Sumitomo Bakelite) to give 5×10^2 cells per well. The cell culture was performed under the same conditions as in the Test Example 2.
The next day, the subject compounds (6 points having final concentrations in the range of 10 μM to 3.0 nM) and DMSO, which was the solvent for the subject compounds, as a negative control were diluted 100-fold with a fresh medium and were each added at 4 μL per well. After culturing in the presence of 5% CO2 at 37° C. for six days, CellTiter Glo 2.0 (from Promega) was added at 20 μL per well. After stirring with a plate mixer (from FINEPCR) at normal temperature for an hour, the luminescent signals were measured with ARVO X3 (from PerkinElmer).
With the signaling value in treatment with DMSO taken as 0% inhibition and with the signaling value in the medium alone without cells taken as 100% inhibition, the 50% inhibition values (IC50) were calculated by Sigmoid-Emax model nonlinear regression analysis.

Assay [2] has as its target KRAS G12D/SOS/c-Raf complex (Homo sapiens (Human), UniProt P01116, G12D). Briefly: KRAS G12D/SOS/c-Raf complex formation inhibitory activity (TR-FRET). Format: biochemical. The following applies: human recombinant proteins, 1 hour at room temperature, read-out: IC50, KRAS G12D/SOS/c-Raf complex formation inhibition. On the procedure: Using human recombinant KRAS G12D, SOS and c-Raf proteins, the inhibitory activity of subject compounds on the complex formation of the proteins was examined by a time-resolved fluorescence resonance energy transfer (TR-FRET) method.
Biotinylated AviTag-KRAS G12D (amino acid region of 1-185, GDP) (2.5 μL; 400 nM) and subject compounds dissolved in an assay buffer (50 mM HEPES, 150 mM NaCl, 5 mM MgCl2, 0.05% Tween 20, pH 7.0) were added to a 384-well plate (from Corning) in a liquid volume of 2.5 μL at 40,000 nM to 40 nM. Son of Sevenless (SOS) (amino acid region of 564-1049, 2.5 μL; 1.3 μM) and c-Raf (amino acid region of 51-131) GST (2.5 μL; 130 nM) containing GTP (from Sigma-Aldrich; 2 μM) were added to the plate, and the plate was allowed to stand for 1 hour at room temperature. Then, a mixture liquid (10 μL) of LANCE Ulight-anti-GST (from PerkinElmer; 120 nM) and LANCE Eu-W1024 labeled Streptoavidin (from PerkinElmer; 100 ng/mL) was added, and the 620-nm and 665-nm fluorescence intensities were measured using EnVision 2104 (from PerkinElmer) under the conditions of an excitation wavelength of 337 nm. After standardizing the values with the fluorescence intensity at a reference wavelength of 620 nm, the 50% inhibitory concentrations (IC50) were calculated by Sigmoid-Emax model nonlinear regression analysis with the signaling value in treatment with the solvent taken as 0% inhibition and with the signaling value without the addition of GTP taken as 100% inhibition.
Background: TR-FRET usually uses a lanthanide donor and a delayed reading to cut background.

In assay [3] the test system is ERK phosphorylation (Thr202/Tyr204) in KRAS G12D mutant-positive pancreatic cancer line AsPC-1. The experiment in a line: ERK phosphorylation inhibitory activity in AsPC-1 (cell ELISA). Format: cell-based. The following applies: Homo sapiens, ASPC1, 2 h, read-out: IC50, ERK phosphorylation inhibition. As for the experimental part:
The ERK phosphorylation inhibitory activities of subject compounds were evaluated by measuring phosphorylation of the 202th threonine (Thr202) and the 204th tyrosine (Tyr204) of ERK located downstream of the KRAS signal by cell ELISA.
AsPC-1 cells (ATCC, CRL-1682) were seeded at 36 μL/well on a 384-well plate (from Greiner bio-one) to give 2.0×10^4 cells per well. As for the cell culture conditions, RPMI-1640 medium (from Sigma-Aldrich) containing 10% fetal bovine serum (from GE Life Sciences) was used in the presence of 5% CO2 at 37° C.
The next day, the subject compounds (6 points having final concentrations in the range of 10 μM to 0.3 nM), trametinib (MEK inhibitor) of a final concentration of 1 μM as a positive control and DMSO, which was the solvent for the subject compounds, as a negative control were diluted 100-fold with a fresh medium and were each added at 4 μL per well, followed by culturing for 2 hours. After culturing, a 30% glyoxal solution (40% glyoxal [from Wako] was diluted with Phosphate Buffered Saline [PBS; from Wako) was quickly added at 30 μL per well, and the plate was allowed to stand for an hour at room temperature to thus immobilize the cells. Then, the plate was centrifuged (110× g, seven seconds, hereinafter centrifugation was performed under the same conditions unless otherwise specified) to remove the supernatant, and 0.1% Triton X-100 (from Amersham Biosciences)—containing PBS was added at 20 μL per well. After allowing the plate to stand for 10 minutes at room temperature, the supernatant was removed by centrifugation, and the same operation was further repeated. Next, 0.5% sodium dodecyl sulfate (SDS; from Invitrogen)-containing PBS was added at 20 μL per well. The plate was allowed to stand at room temperature for 30 minutes and was then centrifuged to remove the supernatant. Subsequently, a blocking solution (Intercept Blocking Buffer; from LI-COR Biosciences) was added at 20 μL per well, and the plate was allowed to stand for an hour at room temperature. The supernatant was removed by centrifugation, and an ERK (Thr202/Tyr204) phosphorylation antibody (Phospho-p44/42 MAPK (Erk 1/2) (Thr202/Tyr204) (D13.14.4E) XP Rabbit mAb; from Cell Signaling Technology) diluted 2,500-fold with the blocking solution was added at 10 μL per well as a primary antibody. The plate was allowed to stand at 4° C. overnight.
The next day, the plate was centrifuged to remove the supernatant, and 0.05% Tween-20-containing PBS (from Thermo Scientific; 20× PBS Tween-20 was diluted 20-fold with ion exchange water and used) was added at 20 μL per well. The supernatant was removed by centrifugation to thus wash each well. The washing was performed three times in total. After washing, an IRDye 800CW Goat anti-Rabbit IgG (from LI-COR Biosciences) diluted 1,000-fold with the blocking solution was added at 10 μL per well as a secondary antibody, and the plate was allowed to stand for an hour at room temperature. The plate was centrifuged to remove the supernatant, and each well was washed three times with 0.05% Tween-20-containing PBS in the same manner as after the primary antibody reaction. Centrifugation after the third washing was performed at 171×g for 17 seconds. After removing the supernatant, the plate was dried as it was with air at room temperature for three hours or more, and the 800-nm fluorescent signals were measured with Aerius (from LI-COR Biosciences).
With the signaling value at the time of addition of DMSO taken as 0% inhibition and with the signaling value at the time of addition of […] trametinib taken as 100% inhibition, the 50% inhibition values (IC50) were calculated by Sigmoid-Emax model nonlinear regression analysis.
For orientation: ELISA stands for enzyme-linked immunosorbent assay.

KRAS G12D/SOS/c-Raf complex, sequence (P01116 other isoform, or with tags, fused parts or gaps G12D): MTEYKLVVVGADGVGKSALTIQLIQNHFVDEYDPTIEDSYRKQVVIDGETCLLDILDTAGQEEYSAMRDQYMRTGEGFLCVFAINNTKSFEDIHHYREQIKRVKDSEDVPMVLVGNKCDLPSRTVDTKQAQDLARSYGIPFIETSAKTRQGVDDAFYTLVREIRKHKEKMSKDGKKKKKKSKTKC

For `CCN1CCN(Cc2ccc(COc3c(-c4c(C)c(F)cc5[nH]ncc45)c(C4CC4)cc4c(N5C[C@@H]6C[C@H]5CN6)nc(OC5CCOCC5)nc34)cc2)C(=O)C1` [Example 4, 1-({4-[({6-cyclopropyl-4-[(1S,4S)-2,5-diazabicyclo[2.2.1]heptan-2-yl]-7-(6-fluoro-5-methyl-1H-indazol-4-yl)-2-[(oxan-4-yl)oxy]quinazolin-8-yl}oxy)methyl]phenyl}methyl)-4-ethylpiperazin-2-one], the IC50 in assay [1] turned out to be 99 nM; in assay [2] it was 100 nM; in assay [3], 37 nM.
Take `Cc1c(F)cc2[nH]ncc2c1-c1c(C2CC2)cc2c(N3C[C@@H]4C[C@H]3CN4)nc(OC3CCOCC3)nc2c1OCc1ccc(CN2CCN(C3CCOCC3)CC2=O)cc1` [Example 5, 1-({4-[({6-cyclopropyl-4-[(1S,4S)-2,5-diazabicyclo[2.2.1]heptan-2-yl]-7-(6-fluoro-5-methyl-1H-indazol-4-yl)-2-[(oxan-4-yl)oxy]quinazolin-8-yl}oxy)methyl]phenyl}methyl)-4-(oxan-4-yl)piperazin-2-one]: the IC50 worked out at 83 nM in assay [1], 107 nM in assay [2] and 32 nM in assay [3].
For `Cc1c(F)cc2[nH]ncc2c1-c1c(C2CC2)cc2c(N3C[C@@H]4C[C@H]3CN4)nc(OC3CCOCC3)nc2c1OCc1ccc(CN2CCN(C(C)C)CC2=O)cc1` [Example 6, 1-({4-[({6-cyclopropyl-4-[(1S,4S)-2,5-diazabicyclo[2.2.1]heptan-2-yl]-7-(6-fluoro-5-methyl-1H-indazol-4-yl)-2-[(oxan-4-yl)oxy]quinazolin-8-yl}oxy)methyl]phenyl}methyl)-4-(propan-2-yl)piperazin-2-one] the same measures were 92 nM, 91 nM and 36 nM.
For `Cc1c(F)cc2[nH]ncc2c1-c1c(C2CC2)cc2c(N3C[C@@H]4C[C@H]3CN4)nc(O[C@@H]3CCCc4cnccc43)nc2c1OCc1ccc(Cn2c(=O)n(C)c3ncccc32)cc1` [Example 8, 1-[(4-{[(6-cyclopropyl-4-[(1S,4S)-2,5-diazabicyclo[2.2.1]heptan-2-yl]-7-(6-fluoro-5-methyl-1H-indazol-4-yl)-2-{[(5R)-5,6,7,8-tetrahydroisoquinolin-5-yl]oxy}quinazolin-8-yl)oxy]methyl}phenyl)methyl]-3-methyl-1,3-dihydro-2H-imidazo[4,5-b]pyridin-2-one] the same measures were 73 nM, 40 nM and 30 nM.
As to `Cc1cc(C)n2cc(Cc3ccc(COc4c(-c5c(C)c(F)cc6[nH]ncc56)c(C5CC5)cc5c(N6C[C@@H]7C[C@H]6CN7)nc(OC6CCOCC6)nc45)cc3)nc2n1` [Example 9, 6-cyclopropyl-4-[(1S,4S)-2,5-diazabicyclo[2.2.1]heptan-2-yl]-8-({4-[(5,7-dimethylimidazo[1,2-a]pyrimidin-2-yl)methyl]phenyl}methoxy)-7-(6-fluoro-5-methyl-1H-indazol-4-yl)-2-[(oxan-4-yl)oxy]quinazoline], the results for the IC50 in assay [1], in assay [2] and in assay [3] were 84 nM, 44 nM and 44 nM, respectively.
As to `Cc1c(F)cc2[nH]ncc2c1-c1c(C2CC2)cc2c(N3C[C@@H]4C[C@H]3CN4)nc(OCc3cccnc3C(C)C)nc2c1OCc1ccc(Cn2c(=O)n(C)c3ncccc32)cc1` [Example 10, 1-[(4-{[(6-cyclopropyl-4-[(1S,4S)-2,5-diazabicyclo[2.2.1]heptan-2-yl]-7-(6-fluoro-5-methyl-1H-indazol-4-yl)-2-{[2-(propan-2-yl)pyridin-3-yl]methoxy}quinazolin-8-yl)oxy]methyl}phenyl)methyl]-3-methyl-1,3-dihydro-2H-imidazo[4,5-b]pyridin-2-one], the IC50 in assay [1] came out at 77 nM; in assay [2], 33 nM; in assay [3], 41 nM.
Regarding `Cc1c(F)cc2[nH]ncc2c1-c1c(C2CC2)cc2c(N3C[C@@H]4C[C@H]3CN4)nc(OC3CCOCC3)nc2c1OCc1ccc(Cn2nc(-c3cnccn3)nc2C)cc1` [Example 11, 6-cyclopropyl-4-[(1S,4S)-2,5-diazabicyclo[2.2.1]heptan-2-yl]-7-(6-fluoro-5-methyl-1H-indazol-4-yl)-8-[(4-{[5-methyl-3-(pyrazin-2-yl)-1H-1,2,4-triazol-1-yl]methyl}phenyl)methoxy]-2-[(oxan-4-yl)oxy]quinazoline], the figures for the IC50 in assay [1], in assay [2] and in assay [3] were 133 nM, 110 nM and 81 nM, respectively.
Take `Cc1c(F)cc2[nH]ncc2c1-c1c(C2CC2)cc2c(N3C[C@@H]4C[C@H]3CN4)nc(OC3CCOCC3)nc2c1OCc1ccc(Cn2nc3n(c2=O)CCOC3)cc1` [Example 12, 2-({4-[({6-cyclopropyl-4-[(1S,4S)-2,5-diazabicyclo[2.2.1]heptan-2-yl]-7-(6-fluoro-5-methyl-1H-indazol-4-yl)-2-[(oxan-4-yl)oxy]quinazolin-8-yl}oxy)methyl]phenyl}methyl)-2,5,6,8-tetrahydro-3H-[1,2,4]triazolo[3,4-c][1,4]oxazin-3-one]: the values for the IC50 in assay [1], in assay [2] and in assay [3] were 153 nM, 74 nM and 72 nM, respectively.
`Cc1c(F)cc2[nH]ncc2c1-c1c(C2CC2)cc2c(N3C[C@@H]4C[C@H]3CN4)nc(OC3CCOCC3)nc2c1OCc1ccc(Cc2nc3ncccn3n2)cc1` [Example 13, 6-cyclopropyl-4-[(1S,4S)-2,5-diazabicyclo[2.2.1]heptan-2-yl]-7-(6-fluoro-5-methyl-1H-indazol-4-yl)-2-[(oxan-4-yl)oxy]-8-({4-[([1,2,4]triazolo[1,5-a]pyrimidin-2-yl)methyl]phenyl}methoxy)quinazoline]: the results for the IC50 in assay [1], in assay [2] and in assay [3] were 130 nM, 77 nM and 78 nM, respectively.
